According to the NIST ThermoML archive (doi:10.1021/je8008039):
Numbers after ± are expanded uncertainties.

Conditions: Crystal; visual observation

Normal melting temperature: 155 ± 1.1 °C
Structure (SMILES): COc1ccc2cc([C@H](C)C(=O)O)ccc2c1 [(S)-(+)-naproxen]
